Experimental data: patent EP0908457B1, “3-(1,2-benzisothiazol- and isoxazol-5-Y1)-2,4(1H,3H)-pyrimidinedione or thione and 3-(1,2-benzisothiazol- and isoxazol-5-y1)-4(3H)-pyrimidinone or thione herbicidal agents” (BASF AKTIENGESELLSCHAFT, priority 1997, dated 1999)

Key:
Cyperus iria = assay: Preemergence weed control under flooded paddy conditions, CYPIR (Rice Flatsedge); format: in vivo; conditions: preemergence weeds, flooded paddy, rated three to four weeks after treatment; also: meaning of each grade not given here
[1] = test system: Oryza sativa, (L.) Tebonnet; assay: Rice tolerance to post-transplant applications under flooded paddy conditions (Example 187), ORYSAT (Rice, Tebonnet); conditions: rated three to four weeks after treatment
Sagittaria pygmaea, L. = assay: Preemergence weed control under flooded paddy conditions, SAGPY (Arrowhead (Pygmaea)); format: in vivo; conditions: preemergence weeds, flooded paddy, rated three to four weeks after treatment; also: meaning of each grade not given here
[2] = test system: Cyperus serotinus, Rottb.; assay: Preemergence weed control under flooded paddy conditions, CYPSE (Flatsedge); format: in vivo; conditions: preemergence weeds, rated three to four weeks after treatment; also: meaning of each grade not given here
[3] = test system: Monochoria vaginalis, Presl.; assay: Preemergence weed control under flooded paddy conditions, MOOVA (Monochoria); format: in vivo; conditions: preemergence weeds, flooded paddy, rated three to four weeks after treatment; also: meaning of each grade not given here
[4] = test system: Echinochloa oryzoides (Ard.) Fritsch.; assay: Preemergence weed control under flooded paddy conditions, ECHORC (Watergrass (Calif.)); format: in vivo; conditions: preemergence weeds, flooded paddy, rated three to four weeks after treatment; also: meaning of each grade not given here

| SMILES | herbicidal effect rating, CYPIR (Cyperus iria; 0.0313 kg/ha) | herbicidal effect rating, CYPIR (Cyperus iria; 0.0625 kg/ha) | herbicidal effect rating, CYPIR (Cyperus iria; 0.1250 kg/ha) | herbicidal effect rating, CYPIR (Cyperus iria; 0.2500 kg/ha) | herbicidal effect rating, ORYSAT (rice tolerance) ([1]; 0.0313 kg/ha) | herbicidal effect rating, ORYSAT (rice tolerance) ([1]; 0.0625 kg/ha) | herbicidal effect rating, ORYSAT (rice tolerance) ([1]; 0.1250 kg/ha) | herbicidal effect rating, ORYSAT (rice tolerance) ([1]; 0.2500 kg/ha) | herbicidal effect rating, SAGPY (Sagittaria pygmaea, L.; 0.0313 kg/ha) | herbicidal effect rating, SAGPY (Sagittaria pygmaea, L.; 0.0625 kg/ha) | herbicidal effect rating, SAGPY (Sagittaria pygmaea, L.; 0.1250 kg/ha) | herbicidal effect rating, SAGPY (Sagittaria pygmaea, L.; 0.2500 kg/ha) | herbicidal effect rating, CYPSE ([2]; 0.0313 kg/ha) | herbicidal effect rating, CYPSE ([2]; 0.0625 kg/ha) | herbicidal effect rating, CYPSE ([2]; 0.1250 kg/ha) | herbicidal effect rating, MOOVA ([3]; 0.0313 kg/ha) | herbicidal effect rating, MOOVA ([3]; 0.0625 kg/ha) | herbicidal effect rating, MOOVA ([3]; 0.1250 kg/ha) | herbicidal effect rating, MOOVA ([3]; 0.2500 kg/ha) | herbicidal effect rating, ECHORC ([4]; 0.0313 kg/ha) | further results |
| --- | --- | --- | --- | --- | --- | --- | --- | --- | --- | --- | --- | --- | --- | --- | --- | --- | --- | --- | --- | --- | --- |
| Cc1ccc(S(=O)(=O)NC(=O)COc2ccc(C)cc2-c2nsc3ccc(-n4c(=O)cc(C(F)(F)F)n(C)c4=O)cc23)cc1 [Example 122, N-{{{2-{5-[3,6-Dihydro-3-methyl-2,6-dioxo-4-(trifluoromethyl)-1(2H)-pyrimidinyl]-1,2-benzisothiazol-3-yl}-p-tolyl}oxy}acetyl}-p-toluenesulfonamide] | 0.0 | 0.0 | 0.0 | 0.0 | 2.0 | 3.0 | 4.0 | 4.0 | 0.0 | 0.0 | 0.0 | 0.0 | 0.0 | 0.0 | 0.0 | 6.0 | 8.0 | 9.0 | 9.0 | 4.0 | herbicidal effect rating, CYPSE ([2]; 0.2500 kg/ha): 0.0; herbicidal effect rating, ECHORC ([4]; 0.0625 kg/ha): 7.0; herbicidal effect rating, ECHORC ([4]; 0.1250 kg/ha): 8.0; herbicidal effect rating, ECHORC ([4]; 0.2500 kg/ha): 9.0 |
| Cn1c(C(F)(F)F)cc(=O)n(-c2ccc3snc(COC(=O)c4ccccc4)c3c2)c1=O [Example 143, 3-[3-(Hydroxymethyl)-1,2-benzisothiazol-5-yl]-1-methyl-6-(trifluoromethyl)-2,4(1H,3H)-pyrimidinedione, benzoate (ester)] | 0.0 | 0.0 | 0.0 | 0.0 | 3.0 | 3.0 | 3.0 | 4.0 | 0.0 | 0.0 | 0.0 | 0.0 | 0.0 | 0.0 | 0.0 | 9.0 | 9.0 | 9.0 | 9.0 | 0.0 | herbicidal effect rating, CYPSE ([2]; 0.2500 kg/ha): 0.0; herbicidal effect rating, ECHORC ([4]; 0.0625 kg/ha): 0.0; herbicidal effect rating, ECHORC ([4]; 0.1250 kg/ha): 2.0; herbicidal effect rating, ECHORC ([4]; 0.2500 kg/ha): 6.0 |
| Cc1ccc(OCC(=O)OC2C=CCCC2)c(-c2nsc3ccc(-n4c(=O)cc(C(F)(F)F)n(C)c4=O)cc23)c1 (centres unmarked) [Example 185, 2-Cyclohexen-1-yl {{2-{5-[3,6-dihydro-3-methyl-2,6-dioxo-4-(trifluoromethyl)-1(2H)-pyrimidinyl]-1,2-benzisothiazol-3-yl}-p-tolyl}oxy}acetate] |  |  |  |  |  |  |  |  |  |  |  |  |  |  |  |  |  |  |  |  | herbicidal effect rating, CYPIR (Cyperus iria; 0.0315 kg/ha): 0.0; herbicidal effect rating, CYPIR (Cyperus iria; 0.0630 kg/ha): 0.0; herbicidal effect rating, ORYSAT (rice tolerance) ([1]; 0.0315 kg/ha): 0.0; herbicidal effect rating, ORYSAT (rice tolerance) ([1]; 0.0630 kg/ha): 0.0; herbicidal effect rating, SAGPY (Sagittaria pygmaea, L.; 0.0315 kg/ha): 0.0; herbicidal effect rating, SAGPY (Sagittaria pygmaea, L.; 0.0630 kg/ha): 0.0; herbicidal effect rating, CYPSE ([2]; 0.0315 kg/ha): 0.0; herbicidal effect rating, CYPSE ([2]; 0.0630 kg/ha): 0.0; herbicidal effect rating, MOOVA ([3]; 0.0315 kg/ha): 9.0; herbicidal effect rating, MOOVA ([3]; 0.0630 kg/ha): 9.0; herbicidal effect rating, ECHORC ([4]; 0.0315 kg/ha): 0.0; herbicidal effect rating, ECHORC ([4]; 0.0630 kg/ha): 0.0 |
| C=CC(C)OC(=O)COc1ccc(C)cc1-c1nsc2ccc(-n3c(=O)cc(C(F)(F)F)n(C)c3=O)cc12 (centres unmarked) [Example 186, 1-Methylallyl {{2-{5-[3,6-dihydro-3-methyl-2,6-dioxo-4-(trifluoromethyl)-1(2H)-pyrimidinyl]-1,2-benzisothiazol-3-yl}-p-tolyl}oxy}acetate] |  |  |  |  |  |  |  |  |  |  |  |  |  |  |  |  |  |  |  |  | herbicidal effect rating, CYPIR (Cyperus iria; 0.0315 kg/ha): 9.0; herbicidal effect rating, CYPIR (Cyperus iria; 0.0630 kg/ha): 9.0; herbicidal effect rating, ORYSAT (rice tolerance) ([1]; 0.0315 kg/ha): 9.0; herbicidal effect rating, ORYSAT (rice tolerance) ([1]; 0.0630 kg/ha): 9.0; herbicidal effect rating, SAGPY (Sagittaria pygmaea, L.; 0.0315 kg/ha): 9.0; herbicidal effect rating, SAGPY (Sagittaria pygmaea, L.; 0.0630 kg/ha): 9.0; herbicidal effect rating, CYPSE ([2]; 0.0315 kg/ha): 9.0; herbicidal effect rating, CYPSE ([2]; 0.0630 kg/ha): 9.0; herbicidal effect rating, MOOVA ([3]; 0.0315 kg/ha): 9.0; herbicidal effect rating, MOOVA ([3]; 0.0630 kg/ha): 9.0; herbicidal effect rating, ECHORC ([4]; 0.0315 kg/ha): 9.0; herbicidal effect rating, ECHORC ([4]; 0.0630 kg/ha): 9.0 |
| CC(C)=CCOC(=O)COc1ccc(C)cc1-c1nsc2ccc(-n3c(=O)cc(C(F)(F)F)n(C)c3=O)cc12 [Example 187, 3-Methyl-2-butenyl {{2-{5-[3,6-dihydro-3-methyl-2,6-dioxo-4-(trifluoromethyl)-1(2H)-pyrimidinyl]-1,2-benzisothiazol-3-yl}-p-tolyl}oxy}acetate] | 0.0 | 0.0 | 2.0 | 4.0 | 2.0 | 3.0 | 3.0 | 6.0 | 0.0 | 0.0 | 0.0 | 0.0 | 0.0 | 0.0 | 0.0 | 8.0 | 9.0 | 9.0 | 9.0 | 0.0 | herbicidal effect rating, CYPSE ([2]; 0.2500 kg/ha): 0.0; herbicidal effect rating, ECHORC ([4]; 0.0625 kg/ha): 2.0; herbicidal effect rating, ECHORC ([4]; 0.1250 kg/ha): 6.0; herbicidal effect rating, ECHORC ([4]; 0.2500 kg/ha): 9.0 |
| COCCOC(=O)COc1ccc(C)cc1-c1nsc2ccc(-n3c(=O)cc(C(F)(F)F)n(C)c3=O)cc12 [Example 191, 2-Methoxyethyl {{2-{5-[3,6-dihydro-3-methyl-2,6-dioxo-4-(trifluoromethyl)-1(2H)-pyrimidinyl]-1,2-benzisothiazol-3-yl}-p-tolyl}oxy}acetate] | 0.0 | 0.0 | 2.0 | 4.0 | 1.0 | 2.0 | 3.0 | 6.0 | 0.0 | 0.0 | 0.0 | 0.0 | 0.0 | 0.0 | 0.0 | 9.0 | 9.0 | 9.0 | 9.0 | 0.0 | herbicidal effect rating, ECHORC ([4]; 0.0625 kg/ha): 2.0; herbicidal effect rating, ECHORC ([4]; 0.1250 kg/ha): 4.0; herbicidal effect rating, ECHORC ([4]; 0.2500 kg/ha): 7.0 |
| C#CCNC(=O)COc1ccc(C)cc1-c1noc2ccc(-n3c(=O)cc(C(F)(F)F)n(C)c3=O)cc12 [Example 193, 2-{{2-{5-[3,6-Dihydro-3-methyl-2,6-dioxo-4-(trifluoromethyl)-1(2H)-pyrimidinyl]-1,2-benzisoxazol-3-yl}-p-tolyl}oxy}-N-(2-propynyl)acetamide] | 0.0 | 0.0 | 0.0 | 0.0 | 0.0 | 0.0 | 0.0 | 1.0 | 0.0 | 0.0 | 0.0 | 0.0 | 0.0 | 0.0 | 0.0 | 2.0 | 4.0 | 9.0 | 9.0 | 0.0 | herbicidal effect rating, CYPSE ([2]; 0.2500 kg/ha): 0.0; herbicidal effect rating, ECHORC ([4]; 0.0625 kg/ha): 0.0; herbicidal effect rating, ECHORC ([4]; 0.1250 kg/ha): 0.0; herbicidal effect rating, ECHORC ([4]; 0.2500 kg/ha): 0.0 |
